Experimental data reported in the supplement of paper PMC8149375.

Key:
Details in all cases: treatment: drug + dasatinib (fixed dose, not stated); 5 days
[1] = test system: CAKI-1; assay: AUC of dose-response viability curve, drug + dasatinib, normalised to DMSO (arbitrary (AUC of normalised viability)); higher = less growth inhibition
Description: (§1)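 Primary HTS combination arm: 8 RCC cell lines treated with 8 doses (up to 10 uM) of each library drug plus a fixed dose of dasatinib (dose not stated) for 5 days; viability read by CellTiter-Glo and normalised to DMSO. GI50 was fitted with XLfit, AUC is the area under the dose-response curve, and minimum viability is the lowest fraction of DMSO viability across doses.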

[2] = test system: 786-O; assay: as above
Description: as §1

[3] = test system: TK-10; assay: as above
Description: as §1

[4] = test system: A498; assay: as above
Description: as §1

[5] = test system: SN12C; assay: as above
Description: as §1

[6] = test system: 769-P; assay: as above
Description: as §1

[7] = test system: UO-31; assay: as above
Description: as §1

[8] = test system: ACHN; assay: as above
Description: as §1

[9] = test system: CAKI-1; assay: GI50 of drug in presence of dasatinib; higher = less potent
Description: as §1

[10] = test system: 786-O; assay: as above
Description: as §1

[11] = test system: TK-10; assay: as above
Description: as §1

[12] = test system: A498; assay: as above
Description: as §1

[13] = test system: SN12C; assay: as above
Description: as §1

[14] = test system: 769-P; assay: as above
Description: as §1

[15] = test system: UO-31; assay: as above
Description: as §1

[16] = test system: ACHN; assay: as above
Description: as §1

[17] = test system: CAKI-1; assay: minimum viability across doses, drug + dasatinib, relative to DMSO (fraction); higher = less growth inhibition
Description: as §1

[18] = test system: 786-O; assay: as above
Description: as §1

[19] = test system: TK-10; assay: as above
Description: as §1

[20] = test system: A498; assay: as above
Description: as §1

[21] = test system: SN12C; assay: as above
Description: as §1

[22] = test system: 769-P; assay: as above
Description: as §1

[23] = test system: UO-31; assay: as above
Description: as §1

[24] = test system: ACHN; assay: as above
Description: as §1

SMILES	GI50 of drug [10]	GI50 of drug [16]	AUC of dose-response viability curve [1]	AUC of dose-response viability curve [2]	AUC of dose-response viability curve [3]	AUC of dose-response viability curve [4]	AUC of dose-response viability curve [5]	AUC of dose-response viability curve [6]	AUC of dose-response viability curve [7]	AUC of dose-response viability curve [8]	GI50 of drug [9]	GI50 of drug [11]	GI50 of drug [12]	GI50 of drug [13]	GI50 of drug [14]	GI50 of drug [15]	minimum viability across doses [17]	minimum viability across doses [18]	minimum viability across doses [19]	minimum viability across doses [20]	minimum viability across doses [21]	minimum viability across doses [22]	minimum viability across doses [23]	minimum viability across doses [24]
CN(C)C/C=C/C(=O)Nc1cc2c(Nc3ccc(F)c(Cl)c3)ncnc2cc1O[C@H]1CCOC1 [Afatinib (BIBW2992)] + Cc1nc(Nc2ncc(C(=O)Nc3c(C)cccc3Cl)s2)cc(N2CCN(CCO)CC2)n1 [dasatinib]	953 nM	4.16 nM	1.57	1.92	1.58	2.54	2.02	1.31	1.88	1.02	241 nM	72.5 nM	1490 nM	2300 nM	29.1 nM	885 nM	0.0121	0.00818	0.0817	0.00955	0.0274	0.0233	0.00619	0.00184
S=C(NCc1ccc2c(c1)OCO2)N1CCN(c2ncnc3c2oc2ccccc23)CC1 [Amuvatinib (MP-470)] + Cc1nc(Nc2ncc(C(=O)Nc3c(C)cccc3Cl)s2)cc(N2CCN(CCO)CC2)n1 [dasatinib]	1310 nM	1390 nM	2.31	1.94	2.39	3.02	2.03	2.2	3.23	1.9	> 10000 nM	2920 nM	4380 nM	1970 nM	1830 nM	2680 nM	0.57	0.0475	0.263	0.245	0.0599	0.282	0.0639	0.156
S=C(NCc1ccc2c(c1)OCO2)N1CCN(c2ncnc3c2oc2ccccc23)CC1 [Amuvatinib (MP-470)_R2] + Cc1nc(Nc2ncc(C(=O)Nc3c(C)cccc3Cl)s2)cc(N2CCN(CCO)CC2)n1 [dasatinib]	1240 nM	1230 nM	2.48	1.87	2.24	2.86	2.06	2.38	3.36	1.85	> 10000 nM	2640 nM	3370 nM	1630 nM	2550 nM	2840 nM	0.583	0.0149	0.26	0.251	0.0319	0.219	0.0367	0.17
CS(=O)(=O)O.N#CC1(c2ccc(NC(=O)c3cccnc3NCc3ccncc3)cc2)CCCC1 [Apatinib (YN968D1)] + Cc1nc(Nc2ncc(C(=O)Nc3c(C)cccc3Cl)s2)cc(N2CCN(CCO)CC2)n1 [dasatinib]	> 10000 nM	6530 nM	2.39	2.64	2.5	3.76	2.45	2.43	4.78	2.18	> 10000 nM	> 10000 nM	> 10000 nM	> 10000 nM	9470 nM	> 10000 nM	0.572	0.624	0.636	0.874	0.656	0.49	0.988	0.389
O=C1C(=O)N(Cc2ccc(Cl)c(Cl)c2)c2ccccc21 [Apoptosis Activator 2] + Cc1nc(Nc2ncc(C(=O)Nc3c(C)cccc3Cl)s2)cc(N2CCN(CCO)CC2)n1 [dasatinib]	> 10000 nM	1990 nM	2.19	1.72	2.34	3.56	2.47	2.46	4.31	1.92	2230 nM	7390 nM	8370 nM	4600 nM	8610 nM	9070 nM	0.187	0.0758	0.454	0.411	0.265	0.486	0.211	0.295
CCN1CCN(C(=O)Cc2ccc(Nc3ncc(F)c(Nc4ccc(C(=O)Nc5ccccc5Cl)cc4)n3)cc2)CC1 [Aurora A Inhibitor I] + Cc1nc(Nc2ncc(C(=O)Nc3c(C)cccc3Cl)s2)cc(N2CCN(CCO)CC2)n1 [dasatinib]	164 nM	130 nM	1.63	1.57	2.18	3.16	2.09	1.98	2.58	1.53	281 nM	1010 nM	8980 nM	1190 nM	652 nM	552 nM	0.00201	0.0991	0.275	0.53	0.00416	0.0246	0.0547	0.0307
CNC(=O)c1ccccc1Sc1ccc2c(/C=C/c3ccccn3)n[nH]c2c1 [Axitinib] + Cc1nc(Nc2ncc(C(=O)Nc3c(C)cccc3Cl)s2)cc(N2CCN(CCO)CC2)n1 [dasatinib]	> 10000 nM	2980 nM	1.8	2.8	2.91	3.26	2.08	2.02	3.37	2.14	439 nM	> 10000 nM	7690 nM	622 nM	1400 nM	7850 nM	0.162	0.635	0.715	0.457	0.262	0.159	0.392	0.271
Cn1c(=O)n(-c2ccc(C(C)(C)C#N)cc2)c2c3cc(-c4cnc5ccccc5c4)ccc3ncc21 [BEZ235 (NVP-BEZ235)] + Cc1nc(Nc2ncc(C(=O)Nc3c(C)cccc3Cl)s2)cc(N2CCN(CCO)CC2)n1 [dasatinib]	81.3 nM	34.7 nM	1.35	1.44	1.84	1.65	1.63	1.35	1.66	1.23	73.7 nM	306 nM	152 nM	164 nM	59.6 nM	129 nM	0.0361	0.0643	0.122	0.0638	0.146	0.0926	0.00603	0.0631
CCN1CCN(c2ccc(Nc3cc(N(C)C(=O)Nc4c(Cl)c(OC)cc(OC)c4Cl)ncn3)cc2)CC1 [BGJ398 (NVP-BGJ398)] + Cc1nc(Nc2ncc(C(=O)Nc3c(C)cccc3Cl)s2)cc(N2CCN(CCO)CC2)n1 [dasatinib]	990 nM	26.6 nM	1.15	1.97	2.18	2.87	1.66	2.3	2.64	1.29	26.6 nM	1350 nM	9590 nM	131 nM	2890 nM	1260 nM	0.0483	0.249	0.221	0.435	0.0804	0.234	0.00819	0.0494

Second part, led by results:

GI50 of drug [10]	GI50 of drug [16]	SMILES	AUC of dose-response viability curve [1]	AUC of dose-response viability curve [2]	AUC of dose-response viability curve [3]	AUC of dose-response viability curve [4]	AUC of dose-response viability curve [5]	AUC of dose-response viability curve [6]	AUC of dose-response viability curve [7]	AUC of dose-response viability curve [8]	GI50 of drug [9]	GI50 of drug [11]	GI50 of drug [12]	GI50 of drug [13]	GI50 of drug [14]	GI50 of drug [15]	minimum viability across doses [17]	minimum viability across doses [18]	minimum viability across doses [19]	minimum viability across doses [20]	minimum viability across doses [21]	minimum viability across doses [22]	minimum viability across doses [23]	minimum viability across doses [24]
44 nM	8.2 nM	CNC(=O)c1cccc(-c2ccc3c(N4CCOC[C@@H]4C)nc(N4CCOC[C@@H]4C)nc3n2)c1 [AZD2014] + Cc1nc(Nc2ncc(C(=O)Nc3c(C)cccc3Cl)s2)cc(N2CCN(CCO)CC2)n1 [dasatinib]	1.28	1.33	1.28	2.2	1.48	1.63	2.06	0.938	62.1 nM	64 nM	430 nM	88.5 nM	131 nM	268 nM	0.0331	0.0164	0.0635	0.147	0.119	0.0727	0.00563	0.0544
3540 nM	314 nM	COc1cc(CCc2cc(NC(=O)c3ccc(N4C[C@@H](C)N[C@@H](C)C4)cc3)n[nH]2)cc(OC)c1 [AZD4547] + Cc1nc(Nc2ncc(C(=O)Nc3c(C)cccc3Cl)s2)cc(N2CCN(CCO)CC2)n1 [dasatinib]	1.25	2.33	2.37	3.4	1.78	2.51	4.54	1.72	34 nM	3000 nM	> 10000 nM	201 nM	> 10000 nM	4240 nM	0.0512	0.106	0.314	0.542	0.061	0.581	0.016	0.14
128 nM	246 nM	Cc1ncc(-c2ccnc(Nc3ccc(S(C)(=O)=O)cc3)n2)n1C(C)C [AZD5438] + Cc1nc(Nc2ncc(C(=O)Nc3c(C)cccc3Cl)s2)cc(N2CCN(CCO)CC2)n1 [dasatinib]	1.65	1.3	2.02	2.78	2.05	1.82	2.05	1.46	238 nM	529 nM	1550 nM	1760 nM	474 nM	367 nM	0.0627	0.00349	0.127	0.0116	0.0122	0.0188	0.00804	0.0173
25 nM	5.85 nM	NC(=O)Nc1cc(-c2cccc(F)c2)sc1C(=O)N[C@H]1CCCNC1 [AZD7762] + Cc1nc(Nc2ncc(C(=O)Nc3c(C)cccc3Cl)s2)cc(N2CCN(CCO)CC2)n1 [dasatinib]	1.19	0.834	1.26	2.29	1.56	1.32	2.04	0.645	59.1 nM	59.6 nM	261 nM	315 nM	52.4 nM	99.7 nM	0.00368	0.00579	0.0198	0.0562	0.00591	0.0473	0.0113	0.0359
7.26 nM	< 3 nM	COc1ccc(-c2ccc3c(N4CCOC[C@@H]4C)nc(N4CCOC[C@@H]4C)nc3n2)cc1CO [AZD8055] + Cc1nc(Nc2ncc(C(=O)Nc3c(C)cccc3Cl)s2)cc(N2CCN(CCO)CC2)n1 [dasatinib]	0.988	0.846	1.21	1.68	1.3	1.22	1.29	0.585	24 nM	36.9 nM	100 nM	39.8 nM	59.9 nM	65.2 nM	0.0255	0.018	0.053	0.182	0.135	0.0691	0.00778	0.044
